One block for each compound: values may come before it.
Legend:
[1] = system: EKV X non-small cell lung cancer cell line; assay: Cellular growth inhibition assay (NCI, SRB staining); assay type: cell-based; settings: Homo sapiens, EKVX, 48 h, read-out: Compound growth inhibition
Experimental: (§1) Cells were inoculated into 96 well microtiter plates in […] at plate densities ranging from 5000 to 40.000 cells per well depending from the individual cell doubling time. Then the cell- containing plates were incubated at 37 °C under an air atmosphere containing 5% of carbon dioxide and with a relative humidity for 24 h. After that time two plates of each cell line were fixed in situ with TCA as control before drug addition. Then the drug containing dmso stock solutions were used and mixed with the cell culture medium containing […] of gentamicin. Aliquots of […] of the respective dilution were added to the preincubated plates reaching a final drug concentration of 10 µM. The plates were incubated again under the preincubation conditions as described for 48 h. Then cells were fixed under addition of 50 ml of a cold 50% solution of TCA reaching a final concentration of 10% TCA. Incubation continued for 60 min at 4 °C. The supernatant was discarded and the plates were washed with water for five times and dried at air. Then a sulforhodamine (SRB) solution (0.4%) in acetic acid (1%) was added to each well and plates were incubated again for 10 min. The unbound dye was removed by washing for five times with an acetic acid solution (1%) and the plates were dried at air. The bound stain was solubilised with a […] solution of trizma base and the absorbance was measured with a plate reader at a wavelength of 515 nm. The growth inhibition measured as lowered net protein increase after SRB staining was determined in relation to the untreated control cells (Table 2).
(§2) In first screening studies carried out with an initial concentration of 10 µM by the National Cancer Institute of Health (NCI) the growth inhibition of respective non-small cell lung cancer (NSCLC) cell lines and of prostate cancer cell lines was determined.

[2] = system: NCI-H23 non-small cell lung cancer cell line; assay: as above; assay type: cell-based; settings: Homo sapiens; NCI-H23, 10 µM, 48 h; read-out: Compound growth inhibition
Experimental: as §1, §2

[3] = system: PC-3 prostate cancer cell line; assay: as above; assay type: cell-based; settings: Homo sapiens; PC-3, 10 µM, 48 h; read-out: Compound growth inhibition
Experimental: as §1, §2

[4] = system: NCI-H322M non-small cell lung cancer cell line; assay: as above; assay type: cell-based; settings: Homo sapiens, 48 h, read-out: Compound growth inhibition
Experimental: as §1, §2

[5] = system: DU-145 prostate cancer cell line; assay: as above; assay type: cell-based; settings: Homo sapiens; DU-145, 10 µM, 48 h; read-out: Compound growth inhibition
Experimental: as §1, §2

PDGFR-β = target: T1, PDGFR-β (Homo sapiens, UniProt P09619); assay: Receptor tyrosine kinase inhibition, [γ-33P]-ATP competition FlashPlate assay; assay type: biochemical; settings: for Ki values PDGFR-β / Ki: Ki determined from IC50, competitive binding mode, 15 µM ATP, Km ATP 0.989 µM, n.a. = not active
T1 construct: GST; made in house; host or cells: Sf9 insect cells (baculovirus)
Experimental: (§3) The protein kinases were expressed by means of the baculovirus expression system in Sf9 insect cells as human recombinant GST fusion proteins and purified by affinity chromatography using GSH-agarose. The kinase identity was confirmed by mass spectrometry using LC-ESI-MS/MS technique.
The measuring of protein kinase activity was performed in 96-well FlashPlates^TM from Perkin Elmer in a 50 µL reaction volume. The reaction mixture consisted of 20 µL of assay buffer solution, 5 µL of ATP solution in water, 5 µL of used test compound in a 10% dmso solution and, finally, a premixture of each 10 µL of used substrate and enzyme solutions. The assay buffer solution contained 70 mM of HEPES-NAOH pH 7.5, each 3 mM of magnesium chloride and manganese(II) chloride, 3 µM of sodium orthovanadate, 1.2 mM of DTT, 50 µg/mL of PEG20000 and finally 15 µM of [γ-^33 P]-ATP making approximately 9 × 10^5 cpm per well. The final kinase concentration has been 10 ng/50 µL for EGFR and 20 ng/50 µL for PDGFR-β. The substrate was Poly(Glu,Tyr)4:1 for EGFR and Poly(Ala, Glu, Lys, Tyr)6:2:5.1 for PDFGR-β, both used in a concentration of 125 ng/50 µL. The reaction mixtures were incubated at 30 °C for 60 min. The reaction was stopped with 50 µL of a 2% (v/v) solution of phosphoric acid. Then the plates were aspirated and washed twice with 200 µL of water and a 0.9% solution of sodium chloride. The incorporation of ^33 P was determined with a microplate scintillation counter. Ten different inhibitor concentrations were measured in a range of 3 nM to 100 µM. The residual activity (%) and the IC50 values were finally calculated. From the IC50 values the affinity constants Ki were determined using the equation: IC50 =1/2 [Etotal]+Ki × (1 + [S]/Km) following a competitive inhibitor binding mode[19] (Table 1). The used Km values for ATP have been measured with 1.3 µM for EGFR and with 0.989 µM for PDGFR-β.

EGFR = target: T2, EGFR (Homo sapiens, UniProt P00533); assay: as above; assay type: biochemical; settings: Ki determined from IC50, competitive binding mode, 15 µM ATP, Km ATP 1.3 µM; n.a. = not active
T2 construct: GST; made in house; host or cells: Sf9 insect cells (baculovirus)
Experimental: as §3
The measuring of protein kinase activity was performed in 96-well FlashPlates^TM from Perkin Elmer in a 50 µL reaction volume. The reaction mixture consisted of 20 µL of assay buffer solution, 5 µL of ATP solution in water, 5 µL of used test compound in a 10% dmso solution and, finally, a premixture of each 10 µL of used substrate and enzyme solutions. […] The final kinase concentration has been 10 ng/50 µL for EGFR and 20 ng/50 µL for PDGFR-β. […] The reaction mixtures were incubated at 30 °C for 60 min. The reaction was stopped with 50 µL of a 2% (v/v) solution of phosphoric acid. Then the plates were aspirated and washed twice with 200 µL of water and a 0.9% solution of sodium chloride. The incorporation of ^33 P was determined with a microplate scintillation counter. Ten different inhibitor concentrations were measured in a range of 3 nM to 100 µM. The residual activity (%) and the IC50 values were finally calculated.

NSCLC cell lines = assay: Cellular growth inhibition assay (NCI, SRB staining), span over the cell lines; assay type: cell-based; settings: Homo sapiens, span over EKV X, NCI-H23, NCI-H322M, read-out: growth inhibition rates in the NSCLC cell lines
Experimental: as §1, §2

[6] = system: prostate cancer cell lines; assay: as above; assay type: cell-based; settings: Homo sapiens; span over PC-3 and DU-145, 10 µM; read-out: growth inhibition rates in the prostate cancer cell lines
Experimental: as §1, §2

[7] = system: PC-3 prostate cancer cell line; design: method as in PMID 19179890, PMID 16926630; settings: PC-3, reported for comparison; cited from earlier work
[8] = system: NCI-H23 non-small cell lung cancer cell line; design: method as in PMID 19179890, PMID 16926630; settings: NCI-H23, reported for comparison; cited from earlier work
[9] = system: DU-145 prostate cancer cell line; design: method as in PMID 19179890, PMID 16926630; settings: DU-145, reported for comparison; cited from earlier work

T2 sequence (P00533 25-1210): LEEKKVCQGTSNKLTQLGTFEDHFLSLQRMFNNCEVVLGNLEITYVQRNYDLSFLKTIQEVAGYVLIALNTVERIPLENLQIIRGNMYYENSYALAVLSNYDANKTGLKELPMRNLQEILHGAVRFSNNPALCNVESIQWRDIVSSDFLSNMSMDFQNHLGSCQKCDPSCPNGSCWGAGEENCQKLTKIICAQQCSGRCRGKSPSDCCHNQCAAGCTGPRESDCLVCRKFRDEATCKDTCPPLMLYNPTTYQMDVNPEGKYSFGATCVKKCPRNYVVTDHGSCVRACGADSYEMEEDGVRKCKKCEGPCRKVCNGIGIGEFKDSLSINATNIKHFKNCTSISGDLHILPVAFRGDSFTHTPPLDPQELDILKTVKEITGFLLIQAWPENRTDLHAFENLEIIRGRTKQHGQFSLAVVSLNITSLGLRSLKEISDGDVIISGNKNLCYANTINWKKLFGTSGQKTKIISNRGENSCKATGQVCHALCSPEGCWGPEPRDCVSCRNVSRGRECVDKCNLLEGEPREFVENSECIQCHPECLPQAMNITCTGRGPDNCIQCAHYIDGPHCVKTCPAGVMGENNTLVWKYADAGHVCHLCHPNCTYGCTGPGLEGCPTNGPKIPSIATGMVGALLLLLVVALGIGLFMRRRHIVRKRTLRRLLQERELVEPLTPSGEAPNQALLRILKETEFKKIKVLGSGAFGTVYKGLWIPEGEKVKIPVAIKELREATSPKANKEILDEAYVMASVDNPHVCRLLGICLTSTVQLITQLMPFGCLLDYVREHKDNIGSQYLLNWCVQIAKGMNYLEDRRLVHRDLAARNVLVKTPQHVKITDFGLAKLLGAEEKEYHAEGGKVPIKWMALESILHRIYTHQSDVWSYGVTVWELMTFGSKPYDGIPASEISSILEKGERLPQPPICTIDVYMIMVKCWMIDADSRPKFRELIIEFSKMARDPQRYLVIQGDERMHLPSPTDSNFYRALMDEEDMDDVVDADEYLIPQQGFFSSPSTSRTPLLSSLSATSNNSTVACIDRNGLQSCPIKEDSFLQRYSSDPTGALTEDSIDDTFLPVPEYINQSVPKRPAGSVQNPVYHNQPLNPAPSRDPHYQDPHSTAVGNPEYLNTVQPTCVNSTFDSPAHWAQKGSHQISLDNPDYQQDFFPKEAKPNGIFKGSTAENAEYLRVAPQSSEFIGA
T1 sequence (P09619 33-1106): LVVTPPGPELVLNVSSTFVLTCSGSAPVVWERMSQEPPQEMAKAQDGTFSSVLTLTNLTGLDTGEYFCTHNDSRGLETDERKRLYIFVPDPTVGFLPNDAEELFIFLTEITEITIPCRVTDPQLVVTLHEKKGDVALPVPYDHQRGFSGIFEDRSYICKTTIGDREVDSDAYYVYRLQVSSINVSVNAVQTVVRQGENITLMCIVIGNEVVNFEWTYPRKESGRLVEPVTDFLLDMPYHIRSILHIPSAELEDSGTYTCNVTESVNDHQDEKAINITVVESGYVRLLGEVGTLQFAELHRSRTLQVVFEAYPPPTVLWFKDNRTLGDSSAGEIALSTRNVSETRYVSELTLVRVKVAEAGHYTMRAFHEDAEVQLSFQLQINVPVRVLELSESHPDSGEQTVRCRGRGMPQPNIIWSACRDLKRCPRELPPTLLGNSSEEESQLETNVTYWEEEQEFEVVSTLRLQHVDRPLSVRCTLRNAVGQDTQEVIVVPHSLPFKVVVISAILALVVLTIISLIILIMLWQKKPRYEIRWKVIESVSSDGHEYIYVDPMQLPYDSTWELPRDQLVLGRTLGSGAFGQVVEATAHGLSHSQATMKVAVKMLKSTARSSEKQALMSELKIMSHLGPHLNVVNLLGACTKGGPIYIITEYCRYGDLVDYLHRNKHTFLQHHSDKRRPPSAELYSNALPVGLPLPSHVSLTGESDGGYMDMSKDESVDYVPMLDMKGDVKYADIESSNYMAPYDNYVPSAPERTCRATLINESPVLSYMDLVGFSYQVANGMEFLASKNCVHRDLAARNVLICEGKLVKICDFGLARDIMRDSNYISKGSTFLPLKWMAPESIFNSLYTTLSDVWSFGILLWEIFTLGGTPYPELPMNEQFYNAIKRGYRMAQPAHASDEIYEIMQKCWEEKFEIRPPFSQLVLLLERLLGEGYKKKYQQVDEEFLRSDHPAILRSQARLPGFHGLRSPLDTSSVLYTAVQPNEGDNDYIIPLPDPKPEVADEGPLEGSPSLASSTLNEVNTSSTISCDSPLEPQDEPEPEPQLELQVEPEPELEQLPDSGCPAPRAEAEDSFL

- Ki values PDGFR-β (PDGFR-β): not active
- Ki (EGFR): 181 ± 14 nM
Structure (SMILES): CCOc1cccc(Nc2nc(N)nc3[nH]c4ccc(O)cc4c23)c1 [Compound 5a, 2-Amino-4-((3-ethoxyphenyl)amino)-9H-pyrimido[4,5-b]indol-6-ol]
- inhibition at 10 µM [1]: 71%
- inhibition at 10 µM [2]: 32%
- inhibition at 10 µM [3]: 25%
- inhibition at 10 µM [4]: 35%
- inhibition at 10 µM [5]: 51%
- inhibition at 10 µM (NSCLC cell lines): 32 to 71%

- Ki (PDGFR-β): 2750 ± 184 nM
- Ki values EGFR (EGFR): lost
Structure (SMILES): CC(C)Oc1cccc(Nc2nc(N)nc3[nH]c4ccc(O)cc4c23)c1 [Compound 5b, 2-Amino-4-((3-isopropoxyphenyl)amino)-9H-pyrimido[4,5-b]indol-6-ol]

- Ki (PDGFR-β): 3530 ± 200 nM
- Ki (EGFR): 149 ± 66 nM
Structure (SMILES): C#Cc1cccc(Nc2nc(N)nc3[nH]c4ccc(O)cc4c23)c1 [Compound 5c, 2-Amino-4-((3-ethinylphenyl)amino)-9H-pyrimido[4,5-b]indol-6-ol]

- Ki (PDGFR-β): 1910 ± 150 nM
- Ki (EGFR): 935 ± 84 nM
Structure (SMILES): CCOc1ccc(Nc2nc(N)nc3[nH]c4ccc(O)cc4c23)cc1 [Compound 5d, 2-Amino-4-((4-ethoxyphenyl)amino)-9H-pyrimido[4,5-b]indol-6-ol]

- Ki (PDGFR-β): 1940 ± 218 nM
- Ki (EGFR): 574 ± 110 nM
Structure (SMILES): CC(C)Oc1ccc(Nc2nc(N)nc3[nH]c4ccc(O)cc4c23)cc1 [Compound 5e, 2-Amino-4-((4-isopropoxyphenyl)amino)-9H-pyrimido[4,5-b]indol-6-ol]

- Ki values PDGFR-β (PDGFR-β): not active
- Ki (EGFR): 421 ± 66 nM
Structure (SMILES): C#Cc1ccc(Nc2nc(N)nc3[nH]c4ccc(O)cc4c23)cc1 [Compound 5f, 2-Amino-4-((4-ethinylphenyl)amino)-9H-pyrimido[4,5-b]indol-6-ol]

- Ki values PDGFR-β (PDGFR-β): not active
- Ki (EGFR): 686 ± 82 nM
Structure (SMILES): Nc1nc(Nc2ccc(Cl)cc2)c2c(n1)[nH]c1ccc(O)cc12 [Compound 5g, 2-Amino-4-((4-chlorophenyl)amino)-9H-pyrimido[4,5-b]indol-6-ol]

- Ki (PDGFR-β): 3230 ± 195 nM
- Ki (EGFR): 475 ± 143 nM
Structure (SMILES): Nc1nc(Nc2ccc(Br)cc2)c2c(n1)[nH]c1ccc(O)cc12 [Compound 5h, 2-Amino-4-((4-bromophenyl)amino)-9H-pyrimido[4,5-b]indol-6-ol]

- Ki (PDGFR-β): 72 ± 15 nM
- Ki (EGFR): 413 ± 111 nM
Structure (SMILES): COc1ccc(COc2ccc(Nc3nc(N)nc4[nH]c5ccc(O)cc5c34)cc2)cc1 [Compound 5i]
- inhibition at 10 µM [1]: 29%
- inhibition at 10 µM [2]: 9%
- inhibition at 10 µM [3]: 25%
- inhibition at 10 µM [4]: 1%
- inhibition at 10 µM [5]: 15%
- inhibition at 10 µM [6]: 15 to 25%
- inhibition at 10 µM (NSCLC cell lines): 1 to 29%

- Ki (PDGFR-β): 209 ± 15 nM
- Ki (EGFR): 132 ± 99 nM
Structure (SMILES): COc1cccc(COc2ccc(Nc3nc(N)nc4[nH]c5ccc(O)cc5c34)cc2)c1 [Compound 5j]

- Ki (PDGFR-β): 81 ± 10 nM
- Ki (EGFR): 170 ± 85 nM
Structure (SMILES): Nc1nc(Nc2ccc(OCc3cccc(F)c3)cc2)c2c(n1)[nH]c1ccc(O)cc12 [Compound 5k]
- inhibition at 10 µM [1]: 90%
- inhibition at 10 µM [2]: 93%
- inhibition at 10 µM [3]: 95%
- inhibition at 10 µM [4]: 96%
- inhibition at 10 µM [5]: 90%

- Ki (PDGFR-β): 213 ± 35 nM
- Ki (EGFR): 103 ± 37 nM
Structure (SMILES): COc1ccc(COc2ccc(Nc3nc(N)nc4[nH]c5ccc(O)cc5c34)cc2Cl)cc1 [Compound 5l, 2-Amino-4-((3-chloro-4-((4-methoxybenzyl)oxy)phenyl)amino)-9H-pyrimido[4,5-b]indol-6-ol]

- Ki (PDGFR-β): 3660 ± 210 nM
- decrease in the PDGFR-β affinity by a factor (PDGFR-β; compared to the 2-amino compound 5k): fifty
- Ki (EGFR): 189 ± 27 nM
Structure (SMILES): Oc1ccc2[nH]c3ncnc(Nc4ccc(OCc5cccc(F)c5)cc4)c3c2c1 [Compound 5m]

Structure (SMILES): C#Cc1cccc(Nc2ncnc3cc(OCCOC)c(OCCOC)cc23)c1 [erlotinib]
- growth inhibition rate [7]: 40%
- growth inhibition rate [8]: 20%
- growth inhibition rate [9]: 45%
